Measurements: PubChem BioAssay (NCI)
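Each compound was tested at five concentrations against cells in 96-well plates for 48 hours. GI50 = concentration required for 50% inhibition of growth. TGI: concentration producing complete growth inhibition.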

Key:
Assay in all cases: growth of human tumour cells (NCI), 48 h
[1] = test system: LOX IMVI melanoma
[2] = test system: EKVX NSCLC
[3] = test system: NCI-H23 lung
[4] = test system: A549 NSCLC
[5] = test system: SK-MEL-2 melanoma
[6] = test system: K-562 leukemia
[7] = test system: MOLT-4 leukemia
[8] = test system: M14 melanoma
[9] = test system: NCI-H522 lung
[10] = test system: CAKI-1 renal

| Structure (SMILES) | TGI [1] [µM] | TGI [2] [µM] | TGI [3] [µM] | TGI [4] [µM] | TGI [5] [µM] | TGI [6] [µM] | TGI [7] [µM] | TGI [8] [µM] | GI50 [1] [µM] | GI50 [9] [µM] | TGI [9] [µM] | GI50 [3] [µM] | GI50 [4] [µM] | GI50 [5] [µM] | GI50 [6] [µM] | GI50 [7] [µM] | GI50 [10] [µM] | TGI [10] [µM] | GI50 [8] [µM] | GI50 [2] [µM] |
| --- | --- | --- | --- | --- | --- | --- | --- | --- | --- | --- | --- | --- | --- | --- | --- | --- | --- | --- | --- | --- |
| OC1=CN=C(c2ccccc2)Oc2ccccc21 | > 100 | > 100 | > 100 | > 100 | > 100 | > 100 | > 100 | > 100 | – | – | – | – | – | – | – | – | – | – | – | – |
| Cc1ccc2ccc3c4ccccc4ccc3c2c1 | 44.3 | – | 96.5 | > 100 | 41.8 | > 100 | 57.6 | > 100 | 19.8 | 19.1 | 51.7 | 22.4 | 29.2 | 19 | 34.7 | 21.2 | 20.9 | 63.7 | 28.6 | – |
| C1CN2CCO[SiH](O1)OCC2 | – | > 100 | > 100 | > 100 | > 100 | > 100 | > 100 | – | – | – | > 100 | – | – | – | – | – | – | > 100 | – | – |
| CCCCCCCCCCCCCCCC(=O)OCC1OC(n2cc(F)c(=O)[nH]c2=O)C(NC(=O)OCc2ccccc2)C(O)C1O (stereo not drawn) | 32.5 | 52.8 | 43.6 | 38.5 | 32 | 31.8 | 38.3 | 33.1 | – | – | – | – | – | – | – | – | – | 33.8 | – | – |
| CCOC(=O)c1cc(C(=O)c2ccc(OC)c(OC)c2)n2c1ccc1ccc3cccnc3c12 | > 100 | > 100 | > 100 | > 100 | 66.6 | – | > 100 | > 100 | 2.6 | 0.611 | > 100 | 4 | 5.46 | 2.67 | – | 4.53 | – | – | 0.648 | 4.14 |
| CCc1c(OC(C)=O)c2c(NC3OC(COC(C)=O)C(OC(C)=O)C(OC(C)=O)C3OC(C)=O)nc(SC)nc2oc1=O (stereo not drawn) | > 100 | > 100 | > 100 | > 100 | > 100 | > 100 | > 100 | > 100 | – | – | – | – | – | – | – | – | – | > 100 | – | – |
| C[C@]12CCc3nc(Nc4ccc(O)cc4)sc3C1=CC[C@@H]1[C@@H]2CC[C@]2(C)/C(=N/NC(N)=S)CC[C@@H]12 | 2.86 | 3.61 | 4.36 | 1.86 | 3.52 | – | 3.39 | 2.9 | 1.52 | – | – | 1.8 | 0.498 | 1.69 | – | 0.47 | 1.59 | 3.4 | 1.18 | 1.57 |
| OCc1ccc(-c2ccc(-c3ccc(CO)o3)o2)o1 | > 100 | – | > 100 | > 100 | 97.1 | > 100 | > 100 | > 100 | > 100 | > 100 | > 100 | > 100 | > 100 | 38.8 | > 100 | > 100 | > 100 | > 100 | > 100 | – |
| N=C(N)n1cc(/C=N/N=C(N)N)cn1 | > 100 | > 100 | > 100 | > 100 | – | > 100 | > 100 | > 100 | – | – | > 100 | – | – | – | – | – | – | > 100 | – | – |
| COc1cc2c(c3c1c(=O)c1ccccc1n3C)C=C([N+](=O)[O-])C(C)(C)O2 | > 100 | > 100 | > 100 | > 100 | – | > 100 | > 100 | – | – | – | > 34.4 | – | – | – | – | – | – | > 100 | – | – |
| [O-][n+]1c2cccc(O)c2[n+]([O-])c2cccc(O)c21 | > 100 | 76.2 | > 100 | > 100 | – | > 100 | > 100 | > 100 | – | – | > 100 | – | – | – | – | – | – | > 100 | – | – |
| C[n+]1cn(CC(=O)c2ccccc2)c(C(N)=O)c1N | > 100 | > 100 | > 100 | > 100 | > 100 | – | > 100 | > 100 | – | – | > 100 | – | – | – | – | – | – | > 100 | – | – |
| COC(=O)c1ccc(NC(N)=NCCC(C)(C)c2ccc(C(F)(F)F)cc2)nc1 | 2.98 | – | 11.5 | 17.2 | 10.5 | 3.72 | 7.33 | 3.8 | 1.57 | 3.1 | 13 | 2.15 | 4.83 | 3.22 | 1.3 | 1.88 | 2.8 | 14.2 | 1.7 | – |
| O=C1c2cccc3c(N4CCOCC4)ccc(c23)C(=O)N1CCN1CCN(CCCCCN2CCN(CCN3C(=O)c4cccc5c(N6CCOCC6)ccc(c45)C3=O)CC2)CC1 | > 100 | > 100 | > 100 | > 100 | – | > 100 | – | > 100 | > 100 | – | – | 99.8 | > 100 | – | 36 | – | > 100 | > 100 | > 100 | > 100 |
| CCN(CC)CCCC(Nc1c2ccc(Cl)cc2nc2ccc(OC)cc12)c1ccc(Cl)cc1 (stereo not drawn) | – | 2.96 | 2.98 | 3.05 | 3.63 | 0.432 | 2.3 | 0.411 | – | 1.46 | 3.09 | 1.43 | 1.52 | 1.89 | 0.221 | 0.761 | 1.17 | 2.44 | 0.199 | 1.35 |
| N#CC(C(=O)Nc1ccccc1)C1=C(Cl)C(=O)c2ccccc2C1=O (stereo not drawn) | 29.8 | 35.1 | 36.5 | 43.4 | 32.7 | 52.5 | – | 30.3 | – | – | 29.3 | – | – | – | – | – | – | 41.2 | – | – |
| CO[C@H]1C(=O)[C@]2(C)[C@@H](OC)C[C@H]3OC[C@@]3(OC(C)=O)[C@H]2[C@H](OC(=O)c2ccccc2)[C@]2(O)C[C@H](OC(=O)[C@H](O)[C@@H](NC(=O)OC(C)(C)C)c3ccccc3)C(C)=C1C2(C)C | 49.7 | > 100 | > 100 | > 64.9 | 0.973 | > 100 | 27.8 | 17.8 | < 0.01 | – | – | < 0.01 | < 0.01 | < 0.01 | < 0.01 | < 0.0114 | – | > 52.9 | < 0.01 | 0.425 |
